In this experiment the test system is HIF‐1α transcriptional activity. The experiment can be described thus: dual‐luciferase assay (HRE‐Firefly Luciferase / renilla) of HIF‐1α transcriptional activity in HEK293T cells. Format: cell-based, human. The settings on record: Homo sapiens, HEK-293T, mean ± s.d. (n = 3); for inhibition at 10 µM: incubation 24 h, HEK293T, read-out: Inhibition rate [%] @ 10 µM; for IC50: HEK293T dual‐luciferase. The text has this: To screen HIF‐1α inhibitors in a robust cell‐based assay, we optimized the dual‐luciferase assay with pLenti‐HIF‐1αP2A (P402A and P564A) instead of pLenti‐HIF‐1α in order to ensure the expression of HIF‐1α under normoxia condition. In the cell‐based assay, HEK293T cells were co‐transfected with pLenti‐HIF‐1αP2A, renilla, and hypoxia‐responsive element (HRE)‐Firefly Luciferase (Figure S1, Supporting Information). […] Three compounds were selected as the positive controls including two inhibitors (PX‐478 2HCl and BAY 87‐2243) and an activator (BAY 85‐3934) in the screening assay.
HEK293T cells were stably transfected with reporter plasmids pGMLV‐HRE‐LUC‐puromycin, pMSCV‐renilla‐hygromycin, and pLenti‐HIF‐1αP2A‐neomycin. Stable cell line constructed above, 293‐HIF‐1αP2A‐HRE‐Fluc‐Rluc, were seeded in 384‐well plates and cultured in DMEM with 10% FBS. The following day, the cells were pretreated with indicated chemical compounds from the National Compound Library of the Shanghai Institute of Materia Medica, Chinese Academy of Sciences by Mosquito HTS. The plate was then placed in an incubator chamber and incubated at 37 °C for 24 h. The ratio of firefly/renilla luciferase activity was determined by using the Envision (PerkinElmer).
Stable cell line 293‐HRE‐Fluc‐Rluc expressed luciferase and renilla or HEK293T cells transfected with indicated plasmids (pGL3‐HRE‐luciferase and pSV40‐renilla) were seeded in a 96‐well plate. The cells were co‐incubated with indicated compounds for 24 h and luciferase activities were detected in Microplate Reader (BioTek SYNEGRY H1) using the Dual Luciferase Reporter Assay System Kit (Promega, USA E1910) according to the manufacturer's instruction. The relative Luc activity was normalized by renilla activity. Three independent experiments were performed, and the calculated means and SDs are presented.

For 34 compounds, inhibition and IC50 results are on record in PMC10477886, “Adamantaniline Derivatives Target ATP5B to Inhibit Translation of Hypoxia Inducible Factor‐1α” (Advanced Science, 2023).

The structures appear in SMILES notation.

With `O=C(Nc1ccc(C23CC4CC(CC(C4)C2)C3)cc1)c1ccccc1C(F)(F)F` [1‐3ad, N‐(4‐((3r,5r,7r)‐Adamantan‐1‐yl)Phenyl)−2‐(Trifluoromethyl)Benzamide], the inhibition at 10 µM was determined as 31.3 ± 3.3%.

Turning to `O=C(Nc1ccc(C23CC4CC(CC(C4)C2)C3)cc1)c1cccc(C(F)(F)F)c1` [1‐3ae, N‐(4‐((3r,5r,7r)‐Adamantan‐1‐yl)Phenyl)−3‐(Trifluoromethyl)Nenzamide], the inhibition at 10 µM was determined as 20.2 ± 1.5%.

Turning to `O=C(Nc1ccc(C23CC4CC(CC(C4)C2)C3)cc1)c1ccc(C(F)(F)F)cc1` [1‐3af, N‐(4‐((3r,5r,7r)‐Adamantan‐1‐yl)Phenyl)−4‐(Trifluoromethyl)Benzamide], the inhibition at 10 µM is 37.9 ± 0.7%.

Turning to `O=C(Nc1ccc(C23CC4CC(CC(C4)C2)C3)cc1)c1ccc(N2CCOCC2)cc1` [1‐3ag, N‐(4‐((3r,5r,7r)‐Adamantan‐1‐yl)Phenyl)−4‐Morpholinobenzamide], the inhibition at 10 µM was found to be 41.6 ± 8.9%.

As to `O=C(Nc1ccc(C23CC4CC(CC(C4)C2)C3)cc1)c1ccc(N2CCCC2)cc1` [1‐3ah, N‐(4‐((3r,5r,7r)‐Adamantan‐1‐yl)Phenyl)−4‐(Pyrrolidin‐1‐yl)Benzamide], the inhibition at 10 µM came out at 66.5 ± 0.9%.

In the case of `CCCCCCOc1ccccc1C(=O)Nc1ccc(C23CC4CC(CC(C4)C2)C3)cc1` [1‐3ai, N‐(4‐((3r,5r,7r)‐Adamantan‐1‐yl)Phenyl)−2‐(Hexyloxy)Benzamide], the inhibition at 10 µM is 28.2 ± 5.5%.

Regarding `CCCCCCOc1cccc(C(=O)Nc2ccc(C34CC5CC(CC(C5)C3)C4)cc2)c1` [1‐3aj, N‐(4‐((3r,5r,7r)‐Adamantan‐1‐yl)Phenyl)−3‐(Hexyloxy)Benzamide], the inhibition at 10 µM is 28.4 ± 6.9%.

As to `CCCCCCCCc1ccc(C(=O)Nc2ccc(C34CC5CC(CC(C5)C3)C4)cc2)cc1` [1‐3ak, N‐(4‐((1s,3s)‐Adamantan‐1‐yl)Phenyl)−4‐Octylbenzamide], the inhibition at 10 µM was determined as 32.5 ± 7.2%.

Take `O=C(CCCCBr)Nc1cccc(C(=O)Nc2ccc(C34CC5CC(CC(C5)C3)C4)cc2)c1` [1‐3al, N‐(4‐((1s,3s)‐Adamantan‐1‐yl)Phenyl)−3‐(5‐Bromopentanamido)Benzamide]: the inhibition at 10 µM turned out to be 89.5 ± 1.1% and the IC50 stood at 1000 ± 100 nM.

`CN1CCN(CCCCC(=O)Nc2cccc(C(=O)Nc3ccc(C45CC6CC(CC(C6)C4)C5)cc3)c2)CC1` [1‐3am, N‐(4‐((1s,3s)‐Adamantan‐1‐yl)Phenyl)−3‐(5‐(4‐Methylpiperazin‐1‐yl)Pentanamido)Benzamide]: the inhibition at 10 µM came out at 86.4 ± 0.9% and half-maximal inhibition (IC50) required 1300 ± 200 nM.

`O=C(CCCCN1CCOCC1)Nc1cccc(C(=O)Nc2ccc(C34CC5CC(CC(C5)C3)C4)cc2)c1` [1‐3an, N‐(4‐((1s,3s)‐Adamantan‐1‐yl)Phenyl)−3‐(5‐Morpholinopentanamido)Benzamide]: the inhibition at 10 µM was found to be 93.4 ± 0.5% and the concentration for half-maximal inhibition (IC50) was 370 ± 40 nM.

Turning to `O=C(CCCCBr)Nc1ccc(C(=O)Nc2ccc(C34CC5CC(CC(C5)C3)C4)cc2)cc1` [1‐3ao, N‐(4‐((3r,5r,7r)‐Adamantan‐1‐yl)Phenyl)−4‐(5‐Bromopentanamido)Benzamide], the inhibition at 10 µM amounted to 82.9 ± 2.4% and it took 2300 ± 500 nM to reach half-maximal inhibition (IC50).

`CN1CCN(CCCCC(=O)Nc2ccc(C(=O)Nc3ccc(C45CC6CC(CC(C6)C4)C5)cc3)cc2)CC1` [1‐3ap, N‐(4‐((3r,5r,7r)‐Adamantan‐1‐yl)Phenyl)−4‐(5‐(4‐Methylpiperazin‐1‐yl)Pentanamido)Benzamide]: the inhibition at 10 µM stood at 88.8 ± 0.2% and the IC50 was 1400 ± 500 nM.

With `O=C(CCCCN1CCOCC1)Nc1ccc(C(=O)Nc2ccc(C34CC5CC(CC(C5)C3)C4)cc2)cc1` [1‐3aq, N‐(4‐((3r,5r,7r)‐Adamantan‐1‐yl)Phenyl)−4‐(5‐Morpholinopentanamido)Benzamide], the inhibition at 10 µM was 69.5 ± 0.5%.

In the case of `CN(C)CCCC(=O)Nc1cccc(C(=O)Nc2ccc(C34CC5CC(CC(C5)C3)C4)cc2)c1` [1‐3ar, N‐(4‐((3r,5r,7r)‐Adamantan‐1‐yl)Phenyl)−3‐(4‐(Dimethylamino)Butanamido)Benzamide], the inhibition at 10 µM amounted to 79.4 ± 1.8% and the midpoint of inhibition, the IC50, lay at 2100 ± 400 nM.

As to `C[N+](C)(C)CCCC(=O)Nc1cccc(C(=O)Nc2ccc(C34CC5CC(CC(C5)C3)C4)cc2)c1` [1‐3as, 4‐((3‐((4‐((3r,5r,7r)‐Adamantan‐1‐yl)Phenyl)Carbamoyl)Phenyl)Amino)‐N,N,N‐Trimethyl‐4‐Oxobutan‐1‐Aminium], the inhibition at 10 µM came to 76.4 ± 1.3% and half-maximal inhibition (IC50) required 2500 ± 700 nM.

With `CN(C)CCCC(=O)Nc1ccc(C(=O)Nc2ccc(C34CC5CC(CC(C5)C3)C4)cc2)cc1` [1‐3at, N‐(4‐((3r,5r,7r)‐Adamantan‐1‐yl)Phenyl)−4‐(4‐(Dimethylamino)Butanamido)Benzamide], the inhibition at 10 µM is 90 ± 1.7% and the IC50 was 940 ± 20 nM.

Turning to `O=C(Nc1ccc(C23CC4CC(CC(C4)C2)C3)cc1)c1ccccc1Cl` [1‐3b, N‐(4‐((3r,5r,7r)‐Adamantan‐1‐yl)Phenyl)−2‐Chlorobenzamide], the inhibition at 10 µM stood at 58.4 ± 1.5%.

As to `O=C(Nc1ccc(C23CC4CC(CC(C4)C2)C3)cc1)c1ccc(Cl)cc1` [1‐3c, N‐(4‐((3r,5r,7r)‐Adamantan‐1‐yl)Phenyl)−4‐Chlorobenzamide], the inhibition at 10 µM worked out at 63.4 ± 5.4%.

Turning to `O=C(Nc1ccc(C23CC4CC(CC(C4)C2)C3)cc1)c1ccccc1Br` [1‐3d, N‐(4‐((3r,5r,7r)‐Adamantan‐1‐yl)Phenyl)−2‐Bromobenzamide], the inhibition at 10 µM is 52.3 ± 3.1%.

As to `O=C(Nc1ccc(C23CC4CC(CC(C4)C2)C3)cc1)c1cccc(Br)c1` [1‐3e, N‐(4‐((3r,5r,7r)‐Adamantan‐1‐yl)Phenyl)−3‐Bromobenzamide], the inhibition at 10 µM is 86.3 ± 0.2% and the half-maximal inhibitory concentration (IC50) came to 1400 ± 300 nM.

In the case of `O=C(Nc1ccc(C23CC4CC(CC(C4)C2)C3)cc1)c1ccc(Br)cc1` [1‐3f, N‐(4‐((3r,5r,7r)‐Adamantan‐1‐yl)Phenyl)−4‐Bromobenzamide], the inhibition at 10 µM is 67.1 ± 5.1%.

Regarding `COc1ccccc1C(=O)Nc1ccc(C23CC4CC(CC(C4)C2)C3)cc1` [1‐3g, N‐(4‐((3r,5r,7r)‐Adamantan‐1‐yl)Phenyl)−2‐Methoxybenzamide], the inhibition at 10 µM was found to be 40.2 ± 2.1%.

For `COc1cccc(C(=O)Nc2ccc(C34CC5CC(CC(C5)C3)C4)cc2)c1` [1‐3h, N‐(4‐((3r,5r,7r)‐Adamantan‐1‐yl)Phenyl)−3‐Methoxybenzamide], the inhibition at 10 µM is 92.1 ± 0.6% and the IC50 was 820 ± 130 nM.

For `COc1ccc(C(=O)Nc2ccc(C34CC5CC(CC(C5)C3)C4)cc2)cc1` [1‐3i, N‐(4‐((3r,5r,7r)‐Adamantan‐1‐yl)Phenyl)−4‐Methoxybenzamide], the inhibition at 10 µM was 86 ± 1.4% and half-maximal inhibition (IC50) was put at 1600 ± 300 nM.

For `N#Cc1ccccc1C(=O)Nc1ccc(C23CC4CC(CC(C4)C2)C3)cc1` [1‐3j, N‐(4‐((3r,5r,7r)‐Adamantan‐1‐yl)Phenyl)−2‐Cyanobenzamide], the inhibition at 10 µM is 41.8 ± 3.4%.

On to `N#Cc1cccc(C(=O)Nc2ccc(C34CC5CC(CC(C5)C3)C4)cc2)c1` [1‐3k, N‐(4‐((3r,5r,7r)‐Adamantan‐1‐yl)Phenyl)−3‐Cyanobenzamide], for which the inhibition at 10 µM stood at 67.4 ± 3.8%.

`N#Cc1ccc(C(=O)Nc2ccc(C34CC5CC(CC(C5)C3)C4)cc2)cc1` [1‐3l, N‐(4‐((3r,5r,7r)‐Adamantan‐1‐yl)Phenyl)−4‐Cyanobenzamide]: the inhibition at 10 µM worked out at 61.2 ± 5.5%.

As to `O=C(Nc1ccc(C23CC4CC(CC(C4)C2)C3)cc1)c1ccccc1O` [1‐3m, N‐(4‐((3r,5r,7r)‐Adamantan‐1‐yl)Phenyl)−2‐Hydroxybenzamide], the inhibition at 10 µM came to 88.4 ± 0.2% and half-maximal inhibition (IC50) required 510 ± 20 nM.

For `O=C(Nc1ccc(C23CC4CC(CC(C4)C2)C3)cc1)c1ccc(O)cc1` [1‐3o, N‐(4‐((3r,5r,7r)‐Adamantan‐1‐yl)Phenyl)−4‐Hydroxybenzamide], the inhibition at 10 µM was found to be 96.4 ± 0.2% and the IC50 came to 53 ± 8 nM.

As for `CC(C)(C)OC(=O)Nc1ccccc1C(=O)Nc1ccc(C23CC4CC(CC(C4)C2)C3)cc1` [1‐3p, Tert‐Butyl 2‐(2‐((4‐((3r,5r,7r)‐Adamantan‐1‐yl)Phenyl)Carbamoyl)Phenyl)Carbamate], the inhibition at 10 µM came to 40.3 ± 3.2%.

Consider `CC(C)(C)OC(=O)Nc1cccc(C(=O)Nc2ccc(C34CC5CC(CC(C5)C3)C4)cc2)c1` [1‐3q, Tert‐Butyl (3‐((4‐((3r,5r,7r)‐Adamantan‐1‐yl)Phenyl)Carbamoyl)Phenyl)Carbamate], for which the inhibition at 10 µM is 75.5 ± 0.3% and the IC50 was determined as 3500 ± 200 nM.

Regarding `CC(C)(C)OC(=O)Nc1ccc(C(=O)Nc2ccc(C34CC5CC(CC(C5)C3)C4)cc2)cc1` [1‐3r, Tert‐Butyl (4‐((4‐((3r,5r,7r)‐Adamantan‐1‐yl)Phenyl)Carbamoyl)Phenyl)Carbamate], the inhibition at 10 µM was 54.6 ± 1.6%.

Turning to `Nc1ccccc1C(=O)Nc1ccc(C23CC4CC(CC(C4)C2)C3)cc1` [1‐3s, N‐(4‐((3r,5r,7r)‐Adamantan‐1‐yl)Phenyl)−2‐Aminobenzamide], the inhibition at 10 µM was found to be 90.4 ± 1.7% and the midpoint of inhibition, the IC50, lay at 540 ± 20 nM.
